Assays:
BCR-ABL Ba/F3 cells = assay: Western blots of CRAF immunoprecipitates and lysates, BCR-ABL Ba/F3 cells; conditions: BCR-ABL Ba/F3 cells
BV173R cells = assay: Cell proliferation and apoptosis; conditions: 72 hr, absence of PD184352
[1] = system: BCR-ABL^T315I Ba/F3 cells; assay: Western blots of CRAF immunoprecipitates and lysates, BCR-ABL^T315I Ba/F3 cells; conditions: BCR-ABL^T315I Ba/F3 cells
BRAF = BRAF (Homo sapiens, UniProt P15056); assay: RAF kinase assay, myc-tagged BRAF captured from COS cells; conditions: various GNF-2 concentrations, 30 min
CRAF^T421N = CRAF^T421N (Homo sapiens, UniProt P04049, T421N); assay: RAF kinase assay, myc-tagged CRAF^T421N captured from COS cells; conditions: gatekeeper mutant; imatinib 10μM, nilotinib 1μM, dasatinib 5μM
[2] = system: K562 cells expressing HRAS^G12V; assay type: cell-based, human
CRAF [3] = target: T1, CRAF (Homo sapiens, UniProt P04049); assay: RAF kinase assay, myc-tagged CRAF captured from COS cells; conditions: imatinib 10μM, nilotinib 1μM, dasatinib 5μM
[4] = system: SW620 (KRAS^G12V), Panc1 (KRAS^G12D) and H460 (KRAS^Q61H) cells; assay: Western blot for MEK and ERK activation in KRAS mutant cells; assay type: cell-based, human; conditions: imatinib 10μM, nilotinib 1μM, dasatinib 5μM
BV173 cells = assay: Western blots of CRAF immunoprecipitates and lysates, BV173 cells; assay type: cell-based, human
D04 cells (NRAS^Q61L) = conditions: western blot
K562 cells = assay: Western blots of CRAF immunoprecipitates and lysates, K562 cells; assay type: cell-based, human; conditions: imatinib 10μM, nilotinib 1μM, dasatinib 5μM
[5] = patient plasma; ref Weisberg et al., 2007; Demetri et al., 2002; cited from earlier work
CRAF [6] = target: T1, CRAF; conditions: D04 cells; imatinib 10μM, nilotinib 1μM, dasatinib 5μM, 3 hr

Chain of BRAF (P15056 whole entry): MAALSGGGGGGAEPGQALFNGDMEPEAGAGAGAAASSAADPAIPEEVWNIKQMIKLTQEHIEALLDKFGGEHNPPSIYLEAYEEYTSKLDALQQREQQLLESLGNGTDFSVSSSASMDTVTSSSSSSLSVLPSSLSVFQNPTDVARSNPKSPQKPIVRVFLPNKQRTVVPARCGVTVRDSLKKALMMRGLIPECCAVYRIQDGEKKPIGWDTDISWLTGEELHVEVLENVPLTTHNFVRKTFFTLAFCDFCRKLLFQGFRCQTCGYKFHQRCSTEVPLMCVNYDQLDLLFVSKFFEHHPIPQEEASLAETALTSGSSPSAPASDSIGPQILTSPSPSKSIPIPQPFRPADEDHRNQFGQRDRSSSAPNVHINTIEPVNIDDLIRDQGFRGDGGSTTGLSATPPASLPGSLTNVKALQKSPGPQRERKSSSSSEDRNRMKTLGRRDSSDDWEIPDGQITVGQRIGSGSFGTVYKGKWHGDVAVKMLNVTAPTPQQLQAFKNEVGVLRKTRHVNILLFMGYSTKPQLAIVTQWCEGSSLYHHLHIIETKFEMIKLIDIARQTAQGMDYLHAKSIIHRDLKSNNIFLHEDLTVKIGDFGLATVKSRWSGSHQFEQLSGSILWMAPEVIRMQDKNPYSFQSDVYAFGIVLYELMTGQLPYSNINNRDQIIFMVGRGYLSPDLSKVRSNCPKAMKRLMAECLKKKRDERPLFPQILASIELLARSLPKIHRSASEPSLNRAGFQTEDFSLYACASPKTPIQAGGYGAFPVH

SMILES	BCR-ABL (Y245) and CRKL (Y207) phosphorylation (BCR-ABL Ba/F3 cells)	BRAF binding to CRAF (BCR-ABL Ba/F3 cells)	CRAF (S338) phosphorylation, MEK and ERK activity/phosphorylation (BCR-ABL Ba/F3 cells)	cell death (apoptotic sub-G1 cells) (BV173R cells)	BCR-ABL and CRKL phosphorylation [1]	BRAF binding to CRAF [1]	also measured
Oc1cc(-c2nc(-c3ccccc3)[nH]c2-c2ccncc2)ccc1Cl [L779450]	Neither agent inhibited BCR-ABL or CRKL phosphorylation	stimulated BRAF binding to CRAF	stimulated				
CN(C)CCOc1ccc(-c2nc(-c3ccncc3)c(-c3ccc4c(c3)CC/C4=N\O)[nH]2)cc1 [SB590885]	Neither agent inhibited BCR-ABL or CRKL phosphorylation	stimulated BRAF binding to CRAF	stimulated				
CNC(=O)c1cc(Oc2ccc(NC(=O)Nc3ccc(Cl)c(C(F)(F)F)c3)cc2)ccn1 [sorafenib]				induced cell death			
NC(=O)c1cccc(-c2cc(Nc3ccc(OC(F)(F)F)cc3)ncn2)c1 [GNF-2]	blocked		blocked		did not block BCR-ABL or CRKL phosphorylation	did not induce BRAF binding to CRAF	CRAF (S338) phosphorylation, MEK and ERK activity/phosphorylation [1]: did not increase CRAF, MEK or ERK phosphorylation; BRAF activity in vitro (BRAF): did not inhibit BRAF activity in vitro
Cc1nc(Nc2ncc(C(=O)Nc3c(C)cccc3Cl)s2)cc(N2CCN(CCO)CC2)n1 [dasatinib]							CRAF^T421N kinase activity in vitro (CRAF^T421N): resistant; BRAF binding to CRAF ([2]; imatinib 10μM, nilotinib 1μM, dasatinib 5μM): induced BRAF binding to CRAF; MEK and ERK phosphorylation ([2]; pathway already saturated): did not increase MEK and ERK phosphorylation; CRAF kinase activity in vitro (CRAF [3]): inhibited; MEK and ERK activation [4]: activated MEK and ERK; BCR-ABL and CRKL phosphorylation (BV173 cells): inhibited BCR-ABL and CRKL phosphorylation; BRAF binding to CRAF (BV173 cells): did not induce BRAF binding to CRAF; MEK and ERK activity (BV173 cells): inhibited MEK and ERK; lowest concentration stimulating robust MEK and ERK phosphorylation (D04 cells (NRAS^Q61L)): 100 nM; BRAF binding to CRAF (K562 cells): did not induce BRAF binding to CRAF; peak plasma/serum concentration [5]: ~90 nM; endogenous CRAF kinase activity (CRAF [6]): activated
Cn1c(Nc2ccc(C(F)(F)F)cc2)nc2cc(Oc3ccnc(-c4ncc(C(F)(F)F)[nH]4)c3)ccc21 [RAF265]				induced cell death	did not inhibit BCR-ABL or CRKL phosphorylation	induced BRAF binding to CRAF	

Source: paper PMC3951999 (Cancer cell, 2011)
